Data taken from PubChem BioAssay AID248 (DTP/NCI, 2004).
Values joined by “and” are separate entries in the source; they are usually repeats but may differ in a detail not shown here. Equal values may be shown once. Toxic doses and inconclusive results are not listed.

System: L1210 leukemia ip in BDF1 mice, survival T/C
Assay: NCI In Vivo Anticancer Drug Screen. Data for tumor model L1210 Leukemia (intraperitoneal) in B6D2F1 (BDF1) mice
Details: endpoint: mean survival time, higher = longer survival
Method in brief: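 Read-out is survival time, reported as the treated-group measurement over the vehicle-control measurement.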

[1] = dose: 200.0 mg/kg/injection, schedule: Q01DX001 (ip), vehicle: Klucel (hydroxypropylcellulose) (HPC)
[2] = dose: 100.0 mg/kg/injection, schedule: Q01DX009 (ip), vehicle: saline
[3] = dose: 100.0 mg/kg/injection, schedule: Q04DX003 (ip), vehicle: saline with Tween-80
[4] = dose: 100.0 mg/kg/injection, schedule: Q04DX002 (ip), vehicle: saline
[5] = dose: 200.0 mg/kg/injection, schedule: Q04DX003 (ip), vehicle: saline with Tween-80
[6] = dose: 400.0 mg/kg/injection, schedule: Q04DX003 (ip), vehicle: saline with Tween-80
[7] = dose: 400.0 mg/kg/injection, schedule: Q04DX003 (ip), vehicle: Klucel (hydroxypropylcellulose) (HPC)
[8] = dose: 50.0 mg/kg/injection, schedule: Q01DX001 (ip), vehicle: Klucel (hydroxypropylcellulose) (HPC)
[9] = dose: 100.0 mg/kg/injection, schedule: Q01DX001 (ip), vehicle: Klucel (hydroxypropylcellulose) (HPC)
[10] = dose: 400.0 mg/kg/injection, schedule: Q01DX001 (ip), vehicle: Klucel (hydroxypropylcellulose) (HPC)
[11] = dose: 100.0 mg/kg/injection, schedule: Q04DX002 (ip), vehicle: Klucel (hydroxypropylcellulose) (HPC)
[12] = dose: 200.0 mg/kg/injection, schedule: Q04DX002 (ip), vehicle: Klucel (hydroxypropylcellulose) (HPC)
[13] = dose: 400.0 mg/kg/injection, schedule: Q04DX002 (ip), vehicle: Klucel (hydroxypropylcellulose) (HPC)

CC1(C)N=C(N)N=C(N)N1c1cccc(OCCCOc2ccccc2)c1
T/C [1]: 102 % of control

Nc1ccc(CSc2ccc(Cl)cc2)cc1
T/C (dose: 12.5 mg/kg/injection, schedule: Q01DX009 (ip), vehicle: Klucel (hydroxypropylcellulose) (HPC)): 94 % of control | T/C (dose: 25.0 mg/kg/injection, schedule: Q01DX009 (ip), vehicle: Klucel (hydroxypropylcellulose) (HPC)): 97 % of control | T/C (dose: 50.0 mg/kg/injection, schedule: Q01DX009 (ip), vehicle: Klucel (hydroxypropylcellulose) (HPC)): 87 % of control | T/C (dose: 75.0 mg/kg/injection, schedule: Q01DX009 (ip), vehicle: Klucel (hydroxypropylcellulose) (HPC)): 88 % of control | T/C (dose: 170.0 mg/kg/injection, schedule: Q01DX009 (ip), vehicle: Klucel (hydroxypropylcellulose) (HPC)): 94 % of control

CC([NH-])c1ccccc1.[Cl][Pt]([Cl])[Cl] (stereo not given)
T/C [2]: 97 % of control | T/C (dose: 200.0 mg/kg/injection, schedule: Q01DX009 (ip), vehicle: saline): 92 % of control | T/C (dose: 400.0 mg/kg/injection, schedule: Q01DX009 (ip), vehicle: saline): 87 % of control

CC(=O)OCC1OCOC2C(C(N)=O)OCOC12 (stereo not given)
T/C (dose: 100.0 mg/kg/injection, schedule: Q01DX001 (ip), vehicle: saline): 103 % of control | T/C (dose: 200.0 mg/kg/injection, schedule: Q01DX001 (ip), vehicle: saline): 103 % of control

S=C(Nc1ccccc1)Sc1ccc(Cl)cc1
T/C (dose: 25.0 mg/kg/injection, schedule: Q04DX003 (ip), vehicle: saline with Tween-80): 96 % of control | T/C (dose: 50.0 mg/kg/injection, schedule: Q04DX003 (ip), vehicle: saline with Tween-80): 92 % of control | T/C [3]: 101 % of control

O=C1c2ccccc2C(=O)N1CNc1cccc(NCN2C(=O)c3ccccc3C2=O)n1
T/C (dose: 100.0 mg/kg/injection, schedule: Q01DX009 (ip), vehicle: saline with Tween-80): 92 % of control | T/C (dose: 200.0 mg/kg/injection, schedule: Q01DX009 (ip), vehicle: saline with Tween-80): 91 % of control | T/C (dose: 400.0 mg/kg/injection, schedule: Q01DX009 (ip), vehicle: saline with Tween-80): 93 % of control

O=C1NC(Cc2ccc(O)cc2)C(=O)N1c1ccccc1O (stereo not given)
T/C (dose: 100.0 mg/kg/injection, schedule: Q01DX001 (ip), vehicle: carboxymethylcellulose (CMC)): 96 % of control | T/C (dose: 200.0 mg/kg/injection, schedule: Q01DX001 (ip), vehicle: carboxymethylcellulose (CMC)): 96 % of control | T/C (dose: 400.0 mg/kg/injection, schedule: Q01DX001 (ip), vehicle: carboxymethylcellulose (CMC)): 94 % of control

N=C(CN1CCCCC1)N1CCCCC1
T/C [4]: 104 % of control

NC(=O)OCCOC(N)=O
T/C [3]: 97 % of control | T/C [5]: 95 % of control | T/C [6]: 95 % of control

O=C(CCBr)NCNC(=O)CCBr
T/C (dose: 53.0 mg/kg/injection, schedule: Q04DX003 (ip), vehicle: Klucel (hydroxypropylcellulose) (HPC)): 114 % of control | T/C (dose: 80.0 mg/kg/injection, schedule: Q04DX003 (ip), vehicle: Klucel (hydroxypropylcellulose) (HPC)): 109 % of control | T/C [2]: 86 % of control | T/C [3]: 113 % of control | T/C (dose: 120.0 mg/kg/injection, schedule: Q04DX003 (ip), vehicle: Klucel (hydroxypropylcellulose) (HPC)): 116 % of control | T/C [5]: 117 % of control | T/C (dose: 264.0 mg/kg/injection, schedule: Q04DX003 (ip), vehicle: acetone): 153 % of control | T/C (dose: 266.0 mg/kg/injection, schedule: Q04DX003 (ip), vehicle: Klucel (hydroxypropylcellulose) (HPC)): 154 % of control | T/C (dose: 266.0 mg/kg/injection, schedule: Q04DX003 (ip), vehicle: saline): 114 % of control | T/C [7]: 170 % of control | T/C (dose: 400.0 mg/kg/injection, schedule: Q04DX003 (ip), vehicle: acetone): 113 % of control | T/C [6]: 151 % of control | T/C (dose: 400.0 mg/kg/injection, schedule: Q04DX003 (ip), vehicle: saline): 120 % of control

CC1=CC2(C)Cc3cc(C)cc(C)c3S(=O)(=O)C2C(C(=O)O)=C1 (stereo not given)
T/C [8]: 102 % of control | T/C [9]: 101 % of control | T/C [1]: 98 % of control | T/C [10]: 96 % of control

COc1ccc(CCC2=NCCN2)cc1OC
T/C [3]: 103 % of control | T/C [5]: 97 % of control

Cc1ccc2nsnc2c1[N+](=O)[O-]
T/C [11]: 107 % of control | T/C [12]: 118 % of control | T/C [13]: 102 % of control

N#CCCN(C(=S)Nc1cccc(C(F)(F)F)c1)C1CCCCC1
T/C [9]: 96 % of control | T/C (dose: 100.0 mg/kg/injection, schedule: Q01DX009 (ip), vehicle: Klucel (hydroxypropylcellulose) (HPC)): 107 % of control and 108 % of control | T/C [11]: 102 % of control and 104 % of control | T/C (dose: 100.0 mg/kg/injection, schedule: Q04DX003 (ip), vehicle: Klucel (hydroxypropylcellulose) (HPC)): 98 % of control | T/C [1]: 90 % of control | T/C (dose: 200.0 mg/kg/injection, schedule: Q01DX009 (ip), vehicle: Klucel (hydroxypropylcellulose) (HPC)): 101 % of control and 107 % of control | T/C [12]: 108 % of control and 114 % of control | T/C (dose: 200.0 mg/kg/injection, schedule: Q04DX003 (ip), vehicle: Klucel (hydroxypropylcellulose) (HPC)): 97 % of control | T/C [10]: 98 % of control | T/C (dose: 400.0 mg/kg/injection, schedule: Q01DX009 (ip), vehicle: Klucel (hydroxypropylcellulose) (HPC)): 96 % of control and 112 % of control | T/C [13]: 100 % of control and 101 % of control | T/C [7]: 97 % of control

CN(C)CCN=C(N)N[N+](=O)[O-]
T/C [4]: 110 % of control | T/C (dose: 200.0 mg/kg/injection, schedule: Q04DX002 (ip), vehicle: saline): 96 % of control | T/C (dose: 400.0 mg/kg/injection, schedule: Q04DX002 (ip), vehicle: saline): 100 % of control

CC(C)(COS(C)(=O)=O)COS(C)(=O)=O
T/C [8]: 95 % of control | T/C [9]: 93 % of control | T/C [1]: 93 % of control | T/C [10]: 101 % of control
